Patent publication US6887896B1, “7-[(7-Alkoxy)-chrom-3-en-6-yl]-heptatrienoic acid and 7-[(3-alkoxy)-5,6-dihydronaphthalen-2-yl]-heptatrienoic acid derivatives having serum glucose reducing activity” (Allergan, Inc., priority 2003, dated 2005)

How the values were obtained:
[1] = molecular target: T1, RARα (Homo sapiens, UniProt P10276); assay: chimeric receptor transactivation assay, RARα; type: cell-based; settings: for EC50: chimeric receptor transactivation, read-out: RAR Trans. EC50 α; for Emax: percentage compared to the standard compound, read-out: RAR Trans. efficacy (number in parentheses) α
T1 sequence (P10276 183-417 limits assumed): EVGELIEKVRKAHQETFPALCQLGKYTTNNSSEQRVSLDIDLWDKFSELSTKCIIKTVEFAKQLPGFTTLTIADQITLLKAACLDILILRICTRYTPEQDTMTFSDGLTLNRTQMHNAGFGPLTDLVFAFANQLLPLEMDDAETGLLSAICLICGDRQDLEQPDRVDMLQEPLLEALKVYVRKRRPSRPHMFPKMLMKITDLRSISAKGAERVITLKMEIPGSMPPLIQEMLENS
Excerpt: Specifically, one such assay is a chimeric receptor transactivation assay which tests for agonist-like activity in the R RAPE and RAR7 receptor subtypes, and which is based on work published by Feigner, P. L. and Holm, M (1989) Focus, 112 is described in detail in U.S. Pat. No. 5,455,265. The specification of U.S. Pat. No. 5,455,265 is hereby expressly incorporated by reference. A holoreceptor transactivation assay and a ligand binding assay which measure the antagonist/agonist like activity of the compounds of the invention, or their ability to bind to the several retinoid receptor subtypes, respectively, are described in published PCT Application No. WO WO93/11755 (particularly on pages 30-33 and 37-41) published on Jun. 24, 1993, the specification of which is also incorporated herein by reference. A detailed experimental procedure for holoreceptor transactivations has been described by Heyman et al. Cell 68, 397-406, (1992); Allegretto et al. J. Biol. Chem. 268, 26625-26633, and Mangelsdorf et al. The Retinoids: Biology, Chemistry and Medicine, pp 319-349, Raven Press Ltd., New York, which are expressly incorporated herein by reference. The results obtained in this assay are expressed in EC50 numbers, as they are also in the chimeric receptor transactivation assay. The results of the ligand binding assay are expressed in Ki numbers. (See Cheng et al. Biochemical Pharmacology Vol. 22 pp 3099-3108, expressly incorporated herein by reference.)
Efficacy in a transactivation assay is expressed as a percentage of the maximum potency attained by the compound compared to a standard which, in this case, is the compound named (2E,4E,1′S,2′S)-3-methyl-5-[2′-methyl-2′-(5,5,8,8-tetramethyl-5,6,7,8-tetrahydro-naphthalen-2-yl)-cyclopropyl]-penta-2,4-dienoic acid. This standard compound is described in U.S. Pat. No. 6,114,533.
The specification of this application for patent is organized in several sections in accordance with structural Formulas A through F each of which discloses a group of preferred compounds within the scope of the invention. Tables that disclose the activity of certain exemplary compounds of the invention in the above-described RXR receptor transactivation and binding assays are found in the corresponding sections. […] The transactivation data pertaining to the activation of RXR receptors were obtained in the holoreceptor assay.
Generally speaking, in the tables disclosing the results of transactivation and binding assays the numbers in parentheses indicate efficacy as a percentage compared to the standard compound, (2E,4E,1′S,2′S)-3-methyl-5-[2′-methyl-2′-(5,5,8,8-tetramethyl-5,6,7,8-tetrahydro-naphthalen-2-yl)cyclopropyl]-penta-2,4-dienoic acid and the other numbers indicate the measured EC50 and K; in nanomolar concentration.

[2] = molecular target: T2, RXRβ (UniProt P28704); assay: holoreceptor transactivation assay, RXRβ; type: cell-based; settings: for EC50: holoreceptor transactivation, read-out: RXR Trans. EC50 β; for RXR Trans. efficacy (number in parentheses) β: percentage compared to the standard compound
T2 sequence (P28704 1-520): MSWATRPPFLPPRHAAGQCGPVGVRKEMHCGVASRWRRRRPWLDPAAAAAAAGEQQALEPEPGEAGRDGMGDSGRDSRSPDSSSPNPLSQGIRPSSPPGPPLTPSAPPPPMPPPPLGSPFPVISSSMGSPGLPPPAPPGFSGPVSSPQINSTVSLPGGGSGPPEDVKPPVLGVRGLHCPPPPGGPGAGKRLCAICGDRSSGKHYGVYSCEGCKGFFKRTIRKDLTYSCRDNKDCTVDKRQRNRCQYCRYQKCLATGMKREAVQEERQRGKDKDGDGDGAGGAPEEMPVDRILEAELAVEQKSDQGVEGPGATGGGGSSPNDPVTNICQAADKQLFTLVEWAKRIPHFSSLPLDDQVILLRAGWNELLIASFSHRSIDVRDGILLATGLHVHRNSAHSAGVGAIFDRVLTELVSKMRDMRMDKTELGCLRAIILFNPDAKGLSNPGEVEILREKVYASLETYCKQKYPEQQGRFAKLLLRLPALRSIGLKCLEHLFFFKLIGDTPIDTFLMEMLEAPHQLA
How it was run: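 Agonist-like activity measured by transactivation: RXR subtypes in a holoreceptor assay, RAR subtypes in a chimeric receptor assay. Values are EC50 in nM. Efficacy is given as percentage of maximum relative to the standard (2E,4E,1′S,2′S)-3-methyl-5-[2′-methyl-2′-(5,5,8,8-tetramethyl-5,6,7,8-tetrahydro-naphthalen-2-yl)cyclopropyl]-penta-2,4-dienoic acid.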

[3] = molecular target: T3, RARα (Homo sapiens, UniProt P10276); assay: ligand binding assay, RARα; settings: for Ki: read-out: RAR Bind. Ki α; for Kd: Table 9 (Formula F), read-out: RAR α Kd
T3 sequence (P10276 1-462): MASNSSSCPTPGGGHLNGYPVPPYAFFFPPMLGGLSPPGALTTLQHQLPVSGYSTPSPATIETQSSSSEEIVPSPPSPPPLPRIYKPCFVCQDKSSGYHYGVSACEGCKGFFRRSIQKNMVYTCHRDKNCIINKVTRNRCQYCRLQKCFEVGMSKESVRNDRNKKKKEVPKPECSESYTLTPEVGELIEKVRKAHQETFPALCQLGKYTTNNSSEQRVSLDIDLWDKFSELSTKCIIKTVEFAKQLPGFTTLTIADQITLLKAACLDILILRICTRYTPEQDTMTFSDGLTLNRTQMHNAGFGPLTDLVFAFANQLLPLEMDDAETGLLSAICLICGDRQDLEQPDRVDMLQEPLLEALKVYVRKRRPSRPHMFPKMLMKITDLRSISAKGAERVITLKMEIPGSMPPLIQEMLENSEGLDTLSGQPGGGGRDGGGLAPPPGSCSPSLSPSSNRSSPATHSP
How it was run: (§1)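 Binding of compounds to several retinoid receptor subtypes was measured. Results are given as Ki values in nanomolar concentration, derived per Cheng et al.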

[4] = molecular target: T4, RARγ (Homo sapiens, UniProt P13631); assay: ligand binding assay, RARγ; settings: for Ki: read-out: RAR Bind. Ki γ; for Kd: Table 9 (Formula F), read-out: RAR γ Kd
T4 sequence (P13631 1-454): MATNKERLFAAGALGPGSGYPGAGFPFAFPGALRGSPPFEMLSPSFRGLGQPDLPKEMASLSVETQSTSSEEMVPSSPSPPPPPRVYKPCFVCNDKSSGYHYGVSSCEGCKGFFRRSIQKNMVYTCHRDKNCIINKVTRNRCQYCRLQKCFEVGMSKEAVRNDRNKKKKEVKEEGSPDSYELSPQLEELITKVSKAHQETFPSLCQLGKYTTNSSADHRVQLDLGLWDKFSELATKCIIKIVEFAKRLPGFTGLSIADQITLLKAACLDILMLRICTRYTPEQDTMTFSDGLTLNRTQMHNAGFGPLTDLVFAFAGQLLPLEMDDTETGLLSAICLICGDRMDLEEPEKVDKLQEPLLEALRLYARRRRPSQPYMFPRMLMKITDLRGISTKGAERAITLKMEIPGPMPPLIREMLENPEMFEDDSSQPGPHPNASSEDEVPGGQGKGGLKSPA
How it was run: as §1

[5] = molecular target: T2, RXRβ; assay: ligand binding assay, RXRβ; settings: for Ki: read-out: RXR Bind Ki β; for Kd: Table 9 (Formula F), read-out: RXR β Kd
How it was run: as §1

| EC50 [1] | Emax [1] | EC50 [2] | RXR Trans. efficacy (number in parentheses) β [2] | Ki [3] | Ki [4] | Ki [5] | Kd [3] | Kd [4] | Kd [5] | SMILES |
| --- | --- | --- | --- | --- | --- | --- | --- | --- | --- | --- |
| 29 nM | 10% | 18 nM | 23% | 180 nM | 2200 nM | 19 nM | – | – | – | CCOc1cc2c(cc1\C(CC)=C(F)/C=C/C(C)=C/C(=O)O)C(CC)=CCC2(C)C [Compound A-78, (2E,4E,6E)-7-(3-Ethoxy-8-ethyl-5,5-dimethyl-5,6-dihydro-naphthalen-2-yl)-6-fluoro-3-methyl-nona-2,4,6-trienoic acid] |
| – | – | 7 nM | 25% | – | – | – | 997 nM | 1600 nM | 12 nM | CCOc1c(\C(C)=C(F)/C=C/C(C)=C/C(=O)O)cc2c(c1Br)C(C)(C)CC=C2C(C)(C)C [Compound A-174, (2E,4E,6E)-7-(4-Bromo-8-tert-butyl-3-ethoxy-5,5-dimethyl-5,6-dihydro-naphthalen-2-yl)-6-fluoro-3-methyl-octa-2,4,6-trienoic acid] |
| – | – | 4 nM | 58% | – | – | – | 32 nM | 517 nM | 23 nM | CCOc1c(\C(CC)=C(F)/C=C/C(C)=C/C(=O)O)cc2c(c1Br)C(C)(C)CC=C2C(C)CC (stereo not shown) [Compound A-176, (2E,4E,6E)-7-(4-Bromo-8-sec-butyl-3-ethoxy-5,5-methyl-5,6-dihydro-naphthalen-2-yl)-6-fluoro-3-methyl-nona-2,4,6-trienoic acid] |
| – | – | 0.5 nM | 66% | – | – | – | 60 nM | 1200 nM | 12 nM | CCOc1c(\C(C)=C(F)/C=C/C(C)=C/C(=O)O)cc2c(c1Cl)C(C)(C)CC=C2C(C)C [Compound A-177, (2E,4E,6E)-7-(4-Chloro-3-ethoxy-8-isopropyl-5,5-dimethyl-5,6-dihydronaphthalen-2-yl)6-fluoro-3-methyl-octa-2,4,6-trienoic acid] |

Second part, the compound before the results:

| SMILES | EC50 [1] | Emax [1] | EC50 [2] | RXR Trans. efficacy (number in parentheses) β [2] | Ki [3] | Ki [4] | Ki [5] | Kd [3] | Kd [4] | Kd [5] |
| --- | --- | --- | --- | --- | --- | --- | --- | --- | --- | --- |
| COc1cc2c(cc1\C(C)=C/C=C/C(C)=C/C(=O)O)C(C(C)C)=CC(C)(C)O2 [Compound 43, 7-(4-Isopropyl-7-methoxy-2,2-dimethyl-2H-chromen-6-yl)-3-methyl-octa-2E,4E,6Z-trienoic acid] | 13 nM | 5% | 16 nM | 96% | 243 nM | 2500 nM | 78 nM | – | – | – |
| CCOc1cc2c(cc1\C(C)=C/C=C/C(C)=C/C(=O)O)C(CC)=CC(C)(C)O2 [Compound 45, 7-(7-Ethoxy-4-ethyl-2,2-dimethyl-2H-chromen-6-yl)-3-methyl-octa-2E,4E,6Z-trienoic acid] | 121 nM | 6% | > 1000 nM | – | 3 nM | 2300 nM | 343 nM | – | – | – |
| CCOc1cc2c(cc1\C(C)=C(F)/C=C/C(C)=C/C(=O)O)C(c1ccccc1)=CC(C)(C)O2 [Compound 127, (2E,4E,6E)-7-(7-Ethoxy-2,2-dimethyl-4-phenyl-2H-chromen-6-yl)-6-fluoro-3-methyl-octa-2,4,6-trienoic acid] | 245 nM | 26% | – | – | 3700 nM | 2600 nM | 554 nM | – | – | – |
| CCCOc1cc2c(cc1\C(C)=C(F)/C=C/C(C)=C/C(=O)O)C(c1ccccc1)=CC(C)(C)O2 [Compound 128, (2E,4E,6E)-7-(2,2-Dimethyl-4-phenyl-7-propoxy-2H-chromen-6-yl)-6-fluoro-3-methyl-octa-2,4,6-trienoic acid] | 14 nM | 25% | – | – | 302 nM | 759 nM | 289 nM | – | – | – |
| CC/C(=C(F)/C=C/C(C)=C/C(=O)O)c1cc2c(cc1OC)OC(C)(C)C=C2C [Compound 129, 6-Fluoro-7-(7-methoxy-2,2,4-trimethyl-2H-chromen-6-yl)-3-methyl-nona-2E,4E,6E-trienoic acid] | > 10000 nM | – | 843 nM | 151% | 177 nM | 4700 nM | 625 nM | – | – | – |
| CC/C(=C(F)/C=C/C(C)=C/C(=O)O)c1cc2c(cc1OC)OC(C)(C)C=C2C(C)C [Compound 130, 6-Fluoro-7-(4-isopropyl-7-methoxy-2,2-dimethyl-2H-chromen-6-yl)-3-methyl-nona-2E,4E,6E-trienoic acid] | 218 nM | 8% | 3.1 nM | 73% | 133 nM | 2700 nM | 24 nM | – | – | – |
| CC/C(=C(F)/C=C/C(C)=C/C(=O)O)c1cc2c(c(Cl)c1OC)OC(C)(C)C=C2C(C)C [Compound 171, 7-(8-Chloro-4-isopropyl-7-methoxy-2,2-dimethyl-2H-chromen-6-yl)-6-fluoro-3-methyl-nona-2E,4E,6E-trienoic acid] | > 1000 nM | – | 0.2 nM | 85% | 47 nM | 4900 nM | 12 nM | – | – | – |
